We go through 5 compounds from US11976091B2, “Terpene glycoside derivatives and uses thereof” (Firmenich SA, priority 2018, dated 2024).

In experiment [1] the test system is panel of 8 trained people. Nature of the experiment: Sensory evaluation of taste properties (descriptive), samples in 4% w/w sucrose solution. The class given is in vivo. To be noted: for Description (taste properties: sweet, licorice and sweet lingering): panel of 8 trained people. On the procedure:
A composition comprising Compound I was generated according to the methods described in Example 1. The composition was dissolved in a 4% w/w sucrose solution, at a final concentration of 30 ppm. A panel of 8 trained people evaluated the test solution, as well as samples comprising rebaudioside A, rebaudioside D, or rebaudioside M for taste properties (sweet, licorice and sweet lingering).

The subject of experiment [2] is panel of 8 trained people. Nature of the experiment: Sensory evaluation of taste properties on a scale of −5 to 5 versus 4% w/w sucrose reference solution. The class given is in vivo. To be noted: for Licorice / Sweet / Sweet Lingering: 30 ppm in 4% w/w sucrose solution, scale −5 to 5 (−5 no effect, 5 extremely strong effect, 0 = 4% w/w sucrose reference); for tastes enhanced in the 4% sucrose base: 30 ppm in 4% sucrose base. On the procedure:
In another experiment, a composition comprising compound of formula I was generated according to the methods described in Example 1. The composition was dissolved in a 4% w/w sucrose solution. A panel of 8 trained people evaluated the test solutions for taste properties (sweet, licorice and sweet lingering) on a scale of −5 to 5 (−5 denoted no effect and 5 denoted extremely strong effect, 0 being the intensity of a reference water solution containing either (i) 4% w/w sucrose solution. The results are shown in the table below.

Setting [3] is: 30 ppm in 4% w/w sucrose solution.

With `C=C1C[C@@]23CC[C@H]4[C@@](C)(CCC[C@@]4(C)C(=O)O[C@@H]4OC(CO[C@@H]5OC(CO)[C@@H](O)C(O)C5O)[C@@H](O)C(O)C4O)[C@@H]2CC[C@]1(O[C@@H]1OC(CO)[C@@H](O)C(O[C@@H]2OC(CO)[C@@H](O)C(O)C2O)C1O[C@@H]1OC(CO)[C@@H](O)C(O)C1O)C3` (some centres unmarked) [Compound I], the “Description (taste properties: sweet, licorice and sweet lingering)” value (from here on “Description”) in experiment [1] (setting [3]) is “Sweet, licorice, lingering”. Besides, in experiment [2], the Licorice was determined as 1.4, the Sweet is listed as 1.1 and the “Sweet Lingering” value stood at 0.4. Besides, in experiment [2] (dosage of 30 ppm in 4% sucrose base), the “effect for licorice and sweet lingering tastes” value is reported as “without any significant effect”. In addition, the “effect on sweet intensity in the 4% sucrose base” value in experiment [2] (dosage of 30 ppm, 95% of confidence level) is “significantly enhanced”.
Take `C=C1C[C@@]23CC[C@H]4[C@@](C)(CCC[C@@]4(C)C(=O)O[C@@H]4O[C@H](CO)[C@@H](O)[C@H](O)[C@H]4O)[C@@H]2CC[C@]1(O[C@@H]1O[C@H](CO)[C@@H](O)[C@H](O[C@@H]2O[C@H](CO)[C@@H](O)[C@H](O)[C@H]2O)[C@H]1O[C@@H]1O[C@H](CO)[C@@H](O)[C@H](O)[C@H]1O)C3` [Reb A, rebaudioside A]: the “Description” value in experiment [1] (setting [3]) was “Sweet, licorice, lingering, slightly”. In experiment [2], the “tastes enhanced in the 4% sucrose base” value was “enhancing sweet and sweet lingering tastes”; the Licorice is reported as 1.3; the Sweet is recorded as 1.5; the “Sweet Lingering” value worked out at 0.5.
For the compound `C=C1C[C@@]23CC[C@H]4[C@@](C)(CCC[C@@]4(C)C(=O)O[C@@H]4O[C@H](CO)[C@@H](O)[C@H](O)[C@H]4O[C@@H]4O[C@H](CO)[C@@H](O)[C@H](O)[C@H]4O)[C@@H]2CC[C@]1(O[C@@H]1O[C@H](CO)[C@@H](O)[C@H](O[C@@H]2O[C@H](CO)[C@@H](O)[C@H](O)[C@H]2O)[C@H]1O[C@@H]1O[C@H](CO)[C@@H](O)[C@H](O)[C@H]1O)C3` [Reb D, rebaudioside D], the “Description” value in experiment [1] (setting [3]) is recorded as “Sweet, lingering, licorice”. In experiment [2], the Licorice came to 1.3, the Sweet stood at 1.5 and the “Sweet Lingering” value is on record as 0.4.
As to `C=C1C[C@@]23CC[C@H]4[C@@](C)(CCC[C@@]4(C)C(=O)O[C@@H]4O[C@H](CO)[C@@H](O)[C@H](O[C@@H]5O[C@H](CO)[C@@H](O)[C@H](O)[C@H]5O)[C@H]4O[C@@H]4O[C@H](CO)[C@@H](O)[C@H](O)[C@H]4O)[C@@H]2CC[C@]1(O[C@@H]1O[C@H](CO)[C@@H](O)[C@H](O[C@@H]2O[C@H](CO)[C@@H](O)[C@H](O)[C@H]2O)[C@H]1O[C@@H]1O[C@H](CO)[C@@H](O)[C@H](O)[C@H]1O)C3` [Reb M, rebaudioside M], in experiment [1] (setting [3]), the “licorice taste compared to the other samples” value is given as “stronger licorice taste”; the “Description” value is listed as “Licorice, sweet, lingering”. In addition, in experiment [2], the “tastes enhanced in the 4% sucrose base” value was “enhancing all sweet, licorice and sweet lingering tastes”; the Licorice was determined as 1.3; the Sweet stood at 1.6; the “Sweet Lingering” value came to 0.8.
Regarding `OC[C@H]1O[C@@](CO)(O[C@H]2O[C@H](CO)[C@@H](O)[C@H](O)[C@H]2O)[C@@H](O)[C@@H]1O` [Sucrose, sucrose], the “Description” value in experiment [1] (setting [3]) is “Sweet, slightly lingering”. The “lingering taste compared to the others” value in experiment [1] (30 ppm test samples in 4% w/w sucrose solution) is reported as “weaker lingering taste than others”.
